From ChEMBL document CHEMBL1201862, “PubChem BioAssay data set” (2004)
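Test compounds were applied to cells in 96-well plates for 48 hours at 5 doses. The concentration for 50% growth inhibition is given as GI50.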 Active and inactive are the calls of the source. Cut-off read from the data, not from the text of the source: active = GI50 up to about 1.1 µM and inactive = higher.

Assays:
Experiment in all cases: inhibition of tumour cell growth, NCI panel, 48 h
OVCAR-8 = system: OVCAR-8
OVCAR-3 = system: OVCAR-3
SF-295 = system: SF-295
NCI-H23 = system: NCI-H23
HCT-116 = system: HCT-116
SF-539 = system: SF-539
Malme-3M = system: Malme-3M
CCRF-CEM = system: CCRF-CEM
NCI/ADR-RES = system: NCI/ADR-RES
DU-145 = system: DU-145
RPMI-8226 = system: RPMI-8226
MOLT-4 = system: MOLT-4
TK-10 = system: TK-10
K562 = system: K562
COLO 205 = system: COLO 205
HT-29 = system: HT-29
HL-60 = system: HL-60
PC-3 = system: PC-3
SF-268 = system: SF-268
SW-620 = system: SW-620
MDA-N = system: MDA-N
SN12C = system: SN12C
UO-31 = system: UO-31
U-251 = system: U-251
OVCAR-4 = system: OVCAR-4
MDA-MB-231 = system: MDA-MB-231
786-0 = system: 786-0
SR = system: SR
LOX IMVI = system: LOX IMVI
SNB-19 = system: SNB-19
M14 = system: M14
SK-MEL-2 = system: SK-MEL-2
MCF7 = system: MCF7
A498 = system: A498
UACC-257 = system: UACC-257
IGROV-1 = system: IGROV-1
ACHN = system: ACHN
MDA-MB-435 = system: MDA-MB-435
SK-MEL-28 = system: SK-MEL-28
NCI-H522 = system: NCI-H522
A549 = system: A549
HOP-92 = system: HOP-92
NCI-H460 = system: NCI-H460
SNB-75 = system: SNB-75
HOP-62 = system: HOP-62
CAKI-1 = system: CAKI-1
HCT-15 = system: HCT-15
KM12 = system: KM12
NCI-H226 = system: NCI-H226
RXF 393 = system: RXF 393
T47D = system: T47D
UACC-62 = system: UACC-62
OVCAR-5 = system: OVCAR-5
Hs-578T = system: Hs-578T
EKVX = system: EKVX
SK-MEL-5 = system: SK-MEL-5
SK-OV-3 = system: SK-OV-3
HCC 2998 = system: HCC 2998

CCOC(=O)NC(N(C)C(C(C)C)P(=O)(OCC)OCC)(C(F)(F)F)C(F)(F)F (configuration not stated)
GI50 (OVCAR-8): > 100 µM (inactive) | GI50 (OVCAR-3): > 100 µM (inactive) | GI50 (SF-295): > 100 µM (inactive) | GI50 (NCI-H23): > 100 µM (inactive) | GI50 (HCT-116): > 100 µM (inactive) | GI50 (SF-539): > 100 µM (inactive) | GI50 (Malme-3M): > 100 µM (inactive) | GI50 (CCRF-CEM): > 100 µM (inactive) | GI50 (NCI/ADR-RES): > 100 µM (inactive) | GI50 (DU-145): > 100 µM (inactive) | GI50 (RPMI-8226): > 100 µM (inactive) | GI50 (MOLT-4): > 100 µM (inactive) | GI50 (TK-10): > 100 µM (inactive) | GI50 (K562): > 100 µM (inactive) | GI50 (COLO 205): > 100 µM (inactive) | GI50 (HT-29): > 100 µM (inactive) | GI50 (HL-60): > 100 µM (inactive) | GI50 (PC-3): > 100 µM (inactive) | GI50 (SF-268): > 100 µM (inactive) | GI50 (SW-620): 4.68 µM (inactive) | GI50 (MDA-N): > 100 µM (inactive) | GI50 (SN12C): > 100 µM (inactive) | GI50 (UO-31): > 100 µM (inactive) | GI50 (U-251): > 100 µM (inactive) | GI50 (OVCAR-4): > 100 µM (inactive) | GI50 (MDA-MB-231): > 100 µM (inactive) | GI50 (786-0): > 100 µM (inactive) | GI50 (SR): > 100 µM (inactive) | GI50 (LOX IMVI): > 100 µM (inactive) | GI50 (SNB-19): > 100 µM (inactive) | GI50 (M14): > 100 µM (inactive) | GI50 (SK-MEL-2): > 100 µM (inactive) | GI50 (MCF7): > 100 µM (inactive) | GI50 (A498): > 100 µM (inactive) | GI50 (UACC-257): > 100 µM (inactive) | GI50 (IGROV-1): > 100 µM (inactive) | GI50 (ACHN): > 100 µM (inactive) | GI50 (MDA-MB-435): > 100 µM (inactive) | GI50 (SK-MEL-28): > 100 µM (inactive) | GI50 (NCI-H522): > 100 µM (inactive) | GI50 (A549): > 100 µM (inactive) | GI50 (HOP-92): > 100 µM (inactive) | GI50 (NCI-H460): > 100 µM (inactive) | GI50 (SNB-75): > 100 µM (inactive) | GI50 (HOP-62): > 100 µM (inactive) | GI50 (CAKI-1): > 100 µM (inactive) | GI50 (HCT-15): > 100 µM | GI50 (KM12): > 100 µM (inactive) | GI50 (NCI-H226): > 100 µM (inactive) | GI50 (RXF 393): > 100 µM (inactive) | GI50 (T47D): > 100 µM (inactive) | GI50 (UACC-62): > 100 µM (inactive) | GI50 (OVCAR-5): > 100 µM (inactive) | GI50 (Hs-578T): > 100 µM (inactive) | GI50 (EKVX): > 100 µM (inactive) | GI50 (SK-MEL-5): > 100 µM (inactive)

COC1/C=C\OC2(C)Oc3c(C)c(O)c4c(O)c(c(/C=N\OCCCc5ccccc5)c(O)c4c3C2=O)NC(=O)/C(C)=C\C=C/C(C)C(O)C(C)C(O)C(C)C(OC(C)=O)C1C (configuration not stated)
GI50 (OVCAR-8): 4.9 µM (inactive) | GI50 (OVCAR-3): 3.07 µM (inactive) | GI50 (SF-295): 4.72 µM (inactive) | GI50 (NCI-H23): 3.21 µM (inactive) | GI50 (HCT-116): 2.3 µM (inactive) | GI50 (SF-539): 2.93 µM (inactive) | GI50 (Malme-3M): 3.54 µM (inactive) | GI50 (CCRF-CEM): 3.08 µM (inactive) | GI50 (NCI/ADR-RES): 3.66 µM (inactive) | GI50 (DU-145): 4.71 µM (inactive) | GI50 (MOLT-4): 3.46 µM (inactive) | GI50 (TK-10): 3.23 µM (inactive) | GI50 (K562): 4.16 µM (inactive) | GI50 (COLO 205): 1.78 µM (inactive) | GI50 (HT-29): 3.59 µM (inactive) | GI50 (HL-60): 3.01 µM (inactive) | GI50 (PC-3): 3.18 µM (inactive) | GI50 (SF-268): 4.93 µM (inactive) | GI50 (SW-620): 4.36 µM (inactive) | GI50 (SK-OV-3): 4.42 µM (inactive) | GI50 (HCC 2998): 11.4 µM (inactive) | GI50 (MDA-N): 3.44 µM (inactive) | GI50 (SN12C): 1.81 µM (inactive) | GI50 (U-251): 4.36 µM (inactive) | GI50 (OVCAR-4): 3.08 µM (inactive) | GI50 (MDA-MB-231): 2.25 µM (inactive) | GI50 (786-0): 3.24 µM (inactive) | GI50 (SR): 2.81 µM (inactive) | GI50 (LOX IMVI): 3.33 µM (inactive) | GI50 (SNB-19): 6.32 µM (inactive) | GI50 (M14): 2.71 µM (inactive) | GI50 (SK-MEL-2): 2.18 µM (inactive) | GI50 (MCF7): 1.17 µM (inactive) | GI50 (A498): 6.93 µM (inactive) | GI50 (UACC-257): 5.74 µM (inactive) | GI50 (IGROV-1): 2.39 µM (inactive) | GI50 (ACHN): 2.56 µM (inactive) | GI50 (MDA-MB-435): 3.25 µM (inactive) | GI50 (SK-MEL-28): 2.06 µM (inactive) | GI50 (NCI-H522): 3.54 µM (inactive) | GI50 (A549): 3.83 µM (inactive) | GI50 (HOP-92): 2.15 µM (inactive) | GI50 (NCI-H460): 3.49 µM (inactive) | GI50 (SNB-75): 2.62 µM (inactive) | GI50 (HOP-62): 2.59 µM (inactive) | GI50 (CAKI-1): 4.32 µM (inactive) | GI50 (HCT-15): 3.16 µM | GI50 (KM12): 4.47 µM (inactive) | GI50 (NCI-H226): 2.13 µM (inactive) | GI50 (RXF 393): 2.9 µM (inactive) | GI50 (T47D): 4.45 µM (inactive) | GI50 (UACC-62): 2.79 µM (inactive) | GI50 (OVCAR-5): 6.85 µM (inactive) | GI50 (Hs-578T): 6.31 µM (inactive) | GI50 (EKVX): 4.52 µM (inactive) | GI50 (SK-MEL-5): 1.78 µM (inactive)
